Laboratory results reported in US10375962B2, “Heterocycle derivatives as pesticides” (BAYER CROPSCIENCE AKTIENGESELLSCHAFT, priority 2016, dated 2019).

Key:
[1] = tested on: L1 larvae of the Australian sheep blowfly (Lucilia cuprina); test: Lucilia cuprina test; type: in vivo; settings: application rate 100 ppm; after 2 days
Procedure: (§1) Solvent: dimethyl sulphoxide
(§2) To produce a suitable active compound formulation, 10 mg of active compound are mixed with 0.5 ml of dimethyl sulphoxide, and the concentrate is diluted with water to the desired concentration.
About 20 L1 larvae of the Australian sheep blowfly (Lucilia cuprina) are transferred into a test vessel containing minced horsemeat and the active compound formulation of the desired concentration.
After 2 days, the kill in % is determined. 100% means that all the larvae have been killed; 0% means that no larvae have been killed.

[2] = log P by HPLC on a reversed-phase column (C 18), EEC Directive 79/831 Annex V.A8; type: physicochemical
Text: Called log P (HCOOH) in the table.
Called log P (neutral) in the table.

[3] = tested on: engorged adult female cattle ticks (Boophilus microplus); test: Boophilus microplus - injection test; type: in vivo; settings: application rate 20 μg/animal, after 7 days
Procedure: as §1
To produce a suitable active compound formulation, 10 mg of active compound are mixed with 0.5 ml of solvent and the concentrate is diluted with solvent to the desired concentration.
1 μl of the active compound solution is injected into the abdomen of 5 engorged adult female cattle ticks (Boophilus microplus). The animals are transferred into dishes and kept in a climate-controlled room.
Efficacy is assessed after 7 days by laying of fertile eggs. Eggs which are not visibly fertile are stored in a climate-controlled cabinet until the larvae hatch after about 42 days. An efficacy of 100% means that none of the ticks has laid any fertile eggs; 0% means that all the eggs are fertile.

[4] = tested on: green peach aphid (Myzus persicae); test: Myzus persicae - spray test (Chinese cabbage leaf discs); type: in vivo; settings: after 5 days
Procedure: Solvent: 78 parts by weight of acetone • • 1.5 parts by weight of dimethylformamide Emulsifier: alkylaryl polyglycol ether
(§3) To produce a suitable active compound formulation, 1 part by weight of active compound is dissolved with the stated parts by weight of solvent and made up with water containing an emulsifier concentration of 1000 ppm until the desired concentration is attained. To produce further test concentrations, the formulation is diluted with emulsifier-containing water.
Discs of Chinese cabbage leaves (Brassica pekinensis) infested by all stages of the green peach aphid (Myzus persicae) are sprayed with an active compound formulation of the desired concentration.
After 5 days, the efficacy in % is determined. 100% means that all the aphids have been killed and 0% means that none of the aphids have been killed.

[5] = tested on: caterpillars of the armyworm (Spodoptera frugiperda); test: Spodoptera frugiperda - spray test; type: in vivo; settings: maize leaf discs, after 7 days
Procedure: Solvent: 78.0 parts by weight of acetone • • 1.5 parts by weight of dimethylformamide Emulsifier: alkylaryl polyglycol ether […] To produce further test concentrations, the formulation is diluted with emulsifier-containing water. Leaf discs of maize (Zea mays) are sprayed with an active compound preparation of the desired concentration and, after drying, populated with caterpillars of the armyworm (Spodoptera frugiperda).

[6] = tested on: larvae of the mustard beetle (Phaedon cochleariae); test: Phaedon cochleariae - spray test; type: in vivo; settings: after 7 days
Procedure: Solvent: 78.0 parts by weight of acetone • • 1.5 parts by weight of dimethylformamide
(§4) Emulsifier: alkylaryl polyglycol ether
as §3
Discs of Chinese cabbage leaves (Brassica pekinensis) are sprayed with an active compound formulation of the desired concentration and, after drying, populated with larvae of the mustard beetle (Phaedon cochleariae).
After 7 days, the efficacy in % is determined. 100% means that all the beetle larvae have been killed and 0% means that none of the beetle larvae have been killed.

[7] = tested on: adult cat fleas (Ctenocephalides felis); test: Ctenocephalides felis - in vitro contact tests with adult cat fleas; type: in vivo; settings: application rate 5 μg/cm^2; after 48 h
Procedure: For the coating of the test tubes, 9 mg of active compound are first dissolved in 1 ml of acetone p.a. and then diluted to the desired concentration with acetone p.a. 250 μl of the solution are distributed homogeneously on the inner walls and the base of a 25 ml test tube by turning and rocking on an orbital shaker (rocking rotation at 30 rpm for 2 h). With 900 ppm of active compound solution and internal surface area 44.7 cm^2, given homogeneous distribution, an area-based dose of 5 μg/cm^2 is achieved.
After the solvent has evaporated off, the tubes are populated with 5-10 adult cat fleas (Ctenocephalides felis), sealed with a perforated plastic lid and incubated in a horizontal position at room temperature and ambient humidity. After 48 h, efficacy is determined. To this end, the test tubes are stood upright and the fleas are knocked to the base of the tube. Fleas which remain motionless at the base or move in an uncoordinated manner are considered to be dead or moribund.
100% efficacy means that all the fleas were dead or moribund. 0% efficacy means that no fleas were harmed.

[8] = tested on: unfed adult cat fleas (Ctenocephalides felis); test: Ctenocephalides felis - oral test; type: in vivo; settings: application rate 100 ppm in citrated cattle blood; after 2 days
Procedure: as §1
For the purpose of production of a suitable active compound formulation, 10 mg of active compound are mixed with 0.5 ml of dimethyl sulphoxide. Dilution with citrated cattle blood gives the desired concentration.
About 20 unfed adult cat fleas (Ctenocephalides felis) are placed into a chamber which is closed at the top and bottom with gauze. A metal cylinder whose bottom end is closed with parafilm is placed onto the chamber. The cylinder contains the blood/active compound formulation, which can be imbibed by the fleas through the parafilm membrane.
After 2 days, the kill in % is determined. 100% means that all of the fleas have been killed; 0% means that none of the fleas have been killed.

[9] = tested on: adult houseflies (Musca domestica); test: Musca domestica test; type: in vivo; settings: application rate 100 ppm; after 2 days
Procedure: as §1, §2
Vessels containing a sponge treated with sugar solution and the active compound formulation of the desired concentration are populated with 10 adult houseflies (Musca domestica).
After 2 days, the kill in % is determined. 100% means that all of the flies have been killed; 0% means that none of the flies have been killed.

[10] = tested on: green peach aphid (Myzus persicae); test: Myzus persicae spray test (bell pepper plants); type: in vivo; settings: application rate 20 ppm, after 6 days
Procedure: Solvent: 14 parts by weight of dimethylformamide
as §4
To produce a suitable active compound formulation, 1 part by weight of active compound is dissolved with the stated parts by weight of solvent and made up with water containing an emulsifier concentration of 1000 ppm until the desired concentration is attained. To produce further test concentrations, the formulation is diluted with emulsifier-containing water. If the addition of ammonium salts or/and penetrants is required, these are each added in a concentration of 1000 ppm to the formulation solution.
Bell pepper plants (Capsicum annuum) severely infested with the green peach aphid (Myzus persicae) are treated by spraying with the active compound formulation in the desired concentration.
After 6 days, the kill in % is determined. 100% means that all of the aphids have been killed; 0% means that none of the aphids have been killed.

[11] = tested on: southern root-knot nematode (Meloidogyne incognita); test: Meloidogyne incognita test; type: in vivo; settings: application rate 20 ppm; lettuce; after 14 days
Procedure: Solvent: 125.0 parts by weight of acetone
To produce a suitable preparation of active compound, 1 part by weight of active compound is mixed with the stated amount of solvent and the concentrate is diluted with water to the desired concentration.
Vessels are filled with sand, active compound solution, an […] suspension of the southern root-knot nematode (Meloidogyne incognita) and lettuce seeds. The lettuce seeds germinate and the plants develop. The galls develop on the roots.
After 14 days, the nematicidal efficacy in % is determined by the formation of galls. 100% means that no galls were found; 0% means that the number of galls on the treated plants corresponds to the untreated control.

[12] = acidic range, pH 2.7, 0.1% aqueous formic acid/acetonitrile, 55° C.
[13] = neutral range, pH 7.8, 0.001 molar aqueous ammonium hydrogencarbonate/acetonitrile, 55° C.

Structure (SMILES)	efficacy (kill) [1]	LOGP_HCOOH (log P (HCOOH)) [2, 12]	LOGP_NEUTRAL (log P (neutral)) [2, 13]	efficacy (laying of fertile eggs) [3]	efficacy ([4]; application rate 100 g/ha)	efficacy ([4]; application rate 500 g/ha)	efficacy ([5]; application rate 100 g/ha)	efficacy ([5]; application rate 500 g/ha)	efficacy ([6]; application rate 500 g/ha)	LOGP_HCOOH (log P (HCOOH)) ([2]; pH 2.7)	LOGP_NEUTRAL (log P (neutral)) ([2]; pH 7.8)	efficacy (fleas dead or moribund) [7]	efficacy (kill) [8]	efficacy (kill) [9]	efficacy ([6]; application rate 100 g/ha)	efficacy (kill) [10]	nematicidal efficacy (formation of galls) [11]
CCS(=O)(=O)c1ccc(-n2cc3cccc(Cl)c3n2)nc1-c1nc2cc(C(F)(F)F)ncc2n1C [Example I-5]	100%	3.94	3.92	80%	70%	90%	100%	100%	100%	–	–	–	–	–	–	–	–
CCS(=O)(=O)c1ccc(-n2ncc3cccnc32)nc1-c1nc2cc(C(F)(F)F)ncc2n1C [Example I-6]	100%	–	–	90%	100%	100%	100%	100%	100%	2.67	2.63	100%	90%	100%	100%	–	–
CCS(=O)(=O)c1ccc(-n2ncc3c(Cl)cccc32)nc1-c1nc2cc(C(F)(F)F)ncc2n1C [Example I-10]	100%	4.27	4.24	80%	–	–	100%	100%	100%	–	–	–	–	100%	100%	–	–
CCS(=O)(=O)c1ccc(-n2ncc3cnccc32)nc1-c1nc2cc(C(F)(F)F)ncc2n1C [Example I-11]	–	1.75	2.47	90%	–	–	–	–	83%	–	–	–	–	–	–	–	–
CCS(=O)(=O)c1ccc(N2Cc3ccc(Cl)cc3C2)nc1-c1nc2cc(C(F)(F)F)ncc2n1C [Example I-18]	100%	–	–	–	–	–	100%	100%	100%	4.03	3.99	100%	100%	80%	100%	98%	–
CCS(=O)(=O)c1ccc(-n2ccc3cc(Cl)cnc32)nc1-c1nc2cc(C(F)(F)F)ncc2n1C [Example I-27]	–	–	–	–	–	–	100%	100%	100%	4.41	4.39	–	–	–	100%	–	100%
CCS(=O)(=O)c1ccc(-n2ccc3ncc(Cl)cc32)nc1-c1nc2cc(C(F)(F)F)ncc2n1C [Example I-28]	100%	–	–	–	–	–	–	100%	100%	3.13	3.05	–	80%	–	100%	–	90%
CCS(=O)(=O)c1ccc(-n2nc3c(Cl)cc(C(F)(F)F)cn3c2=O)nc1-c1nc2cc(C(F)(F)F)ncc2n1C [Example I-32]	100%	–	–	–	–	–	83%	100%	100%	–	3.39	–	100%	100%	100%	–	–
CCS(=O)(=O)c1ccc(-n2nc3cccc(Br)n3c2=O)nc1-c1nc2cc(C(F)(F)F)ncc2n1C [Example I-36]	–	–	–	–	–	–	–	–	–	2.70	2.72	–	–	–	–	–	100%
